Test results taken from ChEMBL document CHEMBL4325880, “Design, synthesis and biological evaluation of novel zanamivir derivatives as potent neuraminidase inhibitors” (Bioorg Med Chem Lett, 2018).

How the values were obtained:
Influenza A virus = experiment: Antiviral activity against Influenza A virus (A/WSN/1933(H1N1)) infected in MDCK cells assessed as reduction in virus-induced cytopathic effect measured everyday; type: functional, organism-based
[1] = Selectivity index, ratio of CC50 for MDCK cells to IC50 for Influenza A virus (A/WSN/1933(H1N1)); type: toxicity; conditions: dog, read-out: Ratio CC50/IC50
[2] = Cytotoxicity against MDCK cells assessed as reduction in cell viability after 72 hrs by CellTiter-Glo assay; type: cell-based, Canis lupus familiaris; conditions: dog
[3] = Inhibition of Clostridium neuraminidase preincubated for 2 mins followed by neuraminidase fluorescent addition and measured after 30 mins by fluorescence assay

Compound | IC50 (Influenza A virus; read-out: pIC50 (converted)) | also measured
CC(=O)N[C@H]1[C@H]([C@H](O)[C@H](O)CO)OC(C(=O)O)=C[C@@H]1NC(=N)NC(=O)CCC1CCOC1 (stereo not given in full) | 1200 nM | –
CC(=O)N[C@H]1[C@H]([C@H](O)[C@H](O)CO)OC(C(=O)O)=C[C@@H]1NC(=N)N [ZANAMIVIR] | – | selectivity ratio [1]: > 115; CC50 at 72 h [2]: > 100000 nM; IC50 (Influenza A virus; read-out: IC50): 873 nM; IC50 [3]: 130000 nM
CC(=O)N[C@H]1[C@H]([C@H](O)[C@H](O)CO)OC(C(=O)O)=C[C@@H]1NC(=N)NC(=O)CC12CC3CC(CC(C3)C1)C2 | 275 nM | –
CC(=O)N[C@H]1[C@H]([C@H](O)[C@H](O)CO)OC(C(=O)O)=C[C@@H]1NC(=N)NC(=O)CCCCC1CCCCC1 | 260 nM | –
CC(=O)N[C@H]1[C@H]([C@H](O)[C@H](O)CO)OC(C(=O)O)=C[C@@H]1NC(=N)NC(=O)Cc1ccccc1 | 46 nM | –
CCC(C)C(=O)NC(=N)N[C@H]1C=C(C(=O)O)O[C@@H]([C@H](O)[C@H](O)CO)[C@@H]1NC(C)=O (stereo not given in full) | 774 nM | –
CC(=O)N[C@H]1[C@H]([C@H](O)[C@H](O)CO)OC(C(=O)O)=C[C@@H]1NC(=N)NC(=O)Cc1ccc2ccccc2c1 | 55 nM | –
CC(=O)N[C@H]1[C@H]([C@H](O)[C@H](O)CO)OC(C(=O)O)=C[C@@H]1NC(=N)NC(=O)CCc1ccccc1Br | 134 nM | –
CC(=O)N[C@H]1[C@H]([C@H](O)[C@H](O)CO)OC(C(=O)O)=C[C@@H]1NC(=N)NC(=O)CCc1ccccc1 | 203 nM | –
CC(=O)N[C@H]1[C@H]([C@H](O)[C@H](O)CO)OC(C(=O)O)=C[C@@H]1NC(=N)NC(=O)CCOc1ccccc1 | 180 nM | –
CC(=O)N[C@H]1[C@H]([C@H](O)[C@H](O)CO)OC(C(=O)O)=C[C@@H]1NC(=N)NCCSc1ccccc1 | 39400 nM | –
COc1cc(CCC(=O)NC(=N)N[C@H]2C=C(C(=O)O)O[C@@H]([C@H](O)[C@H](O)CO)[C@@H]2NC(C)=O)cc(OC)c1OC | 239 nM | –
CC(=O)N[C@H]1[C@H]([C@H](O)[C@H](O)CO)OC(C(=O)O)=C[C@@H]1NC(=N)NC(=O)CCCc1ccc(N)cc1 | 421 nM | –
CC(=O)N[C@H]1[C@H]([C@H](O)[C@H](O)CO)OC(C(=O)O)=C[C@@H]1NC(=N)NC(=O)CCCOc1ccccc1 | 397 nM | –
COc1ccccc1CCC(=O)NC(=N)N[C@H]1C=C(C(=O)O)O[C@@H]([C@H](O)[C@H](O)CO)[C@@H]1NC(C)=O | 196 nM | –
CC(=O)N[C@H]1[C@H]([C@H](O)[C@H](O)CO)OC(C(=O)O)=C[C@@H]1NC(=N)NC(=O)CCc1ccccc1C | 462 nM | –

Compound | IC50 (Influenza A virus; read-out: pIC50 (converted)) | also measured
CC(=O)N[C@H]1[C@H]([C@H](O)[C@H](O)CO)OC(C(=O)O)=C[C@@H]1NC(=N)NC(=O)/C=C/c1cc(F)cc(F)c1 | 166 nM | –
CC(=O)N[C@H]1[C@H]([C@H](O)[C@H](O)CO)OC(C(=O)O)=C[C@@H]1NC(=N)NC(=O)c1ccc([N+](=O)[O-])cc1 | 152 nM | –
CC(=O)N[C@H]1[C@H]([C@H](O)[C@H](O)CO)OC(C(=O)O)=C[C@@H]1NC(=N)NC(=O)CCc1ccc(N)cc1 | 176 nM | –
CC(=O)N[C@H]1[C@H]([C@H](O)[C@H](O)CO)OC(C(=O)O)=C[C@@H]1NC(=N)NC(=O)CCCCCCCCCCOc1ccccc1 | 203 nM | –
CC(=O)N[C@H]1[C@H]([C@H](O)[C@H](O)CO)OC(C(=O)O)=C[C@@H]1NC(=N)NC(=O)CSc1ccc2ccccc2c1 | 20.1 nM | –
CC(=O)N[C@@H]1C(NC(=N)NC(=O)c2ccc(-c3ccc(O)cc3)cc2)C=C(C(=O)O)O[C@H]1[C@H](O)C(O)CO (single isomer, unassigned) | – | selectivity ratio [1]: > 14; CC50 at 72 h [2]: > 100000 nM; IC50 (Influenza A virus; read-out: IC50): 6950 nM; IC50 [3]: 97500 nM
CC(=O)N[C@H]1[C@H]([C@H](O)[C@H](O)CO)OC(C(=O)O)=C[C@@H]1NC(=N)NCCc1ccc2ccccc2c1 | 34700 nM | –
COc1ccccc1CC(=O)NC(=N)N[C@H]1C=C(C(=O)O)O[C@@H]([C@H](O)[C@H](O)CO)[C@@H]1NC(C)=O | 209 nM | –
CC(=O)N[C@H]1[C@H]([C@H](O)[C@H](O)CO)OC(C(=O)O)=C[C@@H]1NC(=N)NC(=O)CCc1ccc2ccccc2c1 | 74.8 nM | –
CC(=O)N[C@H]1[C@H]([C@H](O)[C@H](O)CO)OC(C(=O)O)=C[C@@H]1NC(=N)NC(=O)CC(C)CCC=C(C)C (stereo not given in full) | 541 nM | –
CC(=O)N[C@H]1[C@H]([C@H](O)[C@H](O)CO)OC(C(=O)O)=C[C@@H]1NC(=N)NC(=O)Cc1cccc2ccccc12 | 98.4 nM | –
CC(=O)N[C@H]1[C@H]([C@H](O)[C@H](O)CO)OC(C(=O)O)=C[C@@H]1NC(=N)NC(=O)CCCCCc1ccccc1 | 233 nM | –
CC(=O)N[C@H]1[C@H]([C@H](O)[C@H](O)CO)OC(C(=O)O)=C[C@@H]1NC(=N)NC(=O)CSc1ccccc1 | 189 nM | –
CC(=O)N[C@H]1[C@H]([C@H](O)[C@H](O)CO)OC(C(=O)O)=C[C@@H]1NC(=N)NC(=O)Cc1ccc(F)cc1 | – | selectivity ratio [1]: > 149; CC50 at 72 h [2]: > 100000 nM; IC50 (Influenza A virus; read-out: IC50): 670 nM; IC50 [3]: 35400 nM
CC(=O)N[C@H]1[C@H]([C@H](O)[C@H](O)CO)OC(C(=O)O)=C[C@@H]1NC(=N)NC(=O)CCc1ccccc1C(F)(F)F | 332 nM | –
